The assay concerns the target T1, phosphopantetheinyl transferase Sfp (Bacillus subtilis, UniProt P39135).
T1 sequence (P39135 1-224): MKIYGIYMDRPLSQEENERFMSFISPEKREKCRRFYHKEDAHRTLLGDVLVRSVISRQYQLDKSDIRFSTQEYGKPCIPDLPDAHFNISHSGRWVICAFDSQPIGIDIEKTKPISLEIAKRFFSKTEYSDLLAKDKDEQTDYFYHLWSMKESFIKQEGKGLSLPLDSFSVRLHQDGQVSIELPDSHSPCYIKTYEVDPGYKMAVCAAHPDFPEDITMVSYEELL
The experiment in a line: acyl-phosphopantetheinyl transfer to apo-ACP. In kind it is biochemical. The following applies: DEBS apo-ACP6 as acceptor.

The source of these data is publication PMC2959128 (Journal of the American Chemical Society, 2010).

In the case of `CC/C=C(\C)C(=O)SCCNC(=O)CCNC(=O)[C@H](O)C(C)(C)COP(=O)(O)OP(=O)(O)OC[C@H]1O[C@@H](n2cnc3c(N)ncnc32)[C@H](O)[C@@H]1OP(=O)(O)O` [3-SCoA], the “acyl-phosphopantetheinyl transfer to apo-ACP; LC-ESI(+)-MS” value is recorded as “from DEBS apo-ACP6 using the phosphopantetheinyl transferase Sfp”. In the case of `CC[C@@H](O)[C@@H](C)C(=O)SCCNC(=O)CCNC(=O)[C@H](O)C(C)(C)COP(=O)(O)OP(=O)(O)OC[C@H]1O[C@@H](n2cnc3c(N)ncnc32)[C@H](O)[C@@H]1OP(=O)(O)O` [2a-SCoA] it was “from DEBS apo-ACP6 using the phosphopantetheinyl transferase Sfp”.
